Assay results as given in ChEMBL document CHEMBL1201862, “PubChem BioAssay data set” (2004).
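Each compound was tested at five concentrations against cells in 96-well plates for 48 hours. At the GI50, growth is halved.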 The source made the active and inactive calls. No stated cut-off is given here; in the data, active = GI50 up to about 1.1 µM and inactive = higher.

Key:
Assay in all cases: DTP human tumour cell line panel, 48 h
[1] = test system: MCF7
[2] = test system: HOP-62
[3] = test system: Malme-3M
[4] = test system: LOX IMVI
[5] = test system: SF-268
[6] = test system: A498
[7] = test system: HT-29
[8] = test system: T47D
[9] = test system: NCI-H226
[10] = test system: SF-295
[11] = test system: RPMI-8226
[12] = test system: COLO 205
[13] = test system: IGROV-1
[14] = test system: HCT-116
[15] = test system: MDA-N
[16] = test system: NCI-H23
[17] = test system: CCRF-CEM
[18] = test system: MOLT-4
[19] = test system: OVCAR-3
[20] = test system: SK-MEL-5
[21] = test system: BT-549
[22] = test system: SN12C
[23] = test system: SNB-75
[24] = test system: SK-MEL-2
[25] = test system: UACC-257
[26] = test system: OVCAR-5
[27] = test system: EKVX
[28] = test system: TK-10
[29] = test system: RXF 393
[30] = test system: UACC-62
[31] = test system: K562
[32] = test system: A549
[33] = test system: HCC 2998
[34] = test system: HCT-15
[35] = test system: NCI-H460
[36] = test system: DU-145
[37] = test system: M14
[38] = test system: 786-0
[39] = test system: OVCAR-8
[40] = test system: SW-620
[41] = test system: PC-3
[42] = test system: OVCAR-4
[43] = test system: NCI/ADR-RES
[44] = test system: MDA-MB-435
[45] = test system: CAKI-1
[46] = test system: KM12
[47] = test system: SK-OV-3
[48] = test system: SK-MEL-28
[49] = test system: MDA-MB-231
[50] = test system: SF-539
[51] = test system: HOP-92
[52] = test system: U-251

SMILES: CCOC(=O)c1nc2cc(C(F)(F)F)ccc2nc1Nc1ccc(F)cc1
- GI50 [1]: 85.5 µM (inactive)
- GI50 [2]: 96.6 µM (inactive)
- GI50 [3]: > 100 µM (inactive)
- GI50 [4]: > 100 µM (inactive)
- GI50 [5]: > 100 µM (inactive)
- GI50 [6]: 28.6 µM (inactive)
- GI50 [7]: 97.9 µM (inactive)
- GI50 [8]: > 100 µM (inactive)
- GI50 [9]: 41.1 µM (inactive)
- GI50 [10]: 47.2 µM (inactive)
- GI50 [11]: 6.21 µM (inactive)
- GI50 [12]: 97.3 µM (inactive)
- GI50 [13]: 34.8 µM (inactive)
- GI50 [14]: 96.8 µM (inactive)
- GI50 [15]: > 100 µM (inactive)
- GI50 [16]: 74.1 µM (inactive)
- GI50 [17]: 19.5 µM (inactive)
- GI50 [18]: > 10 µM (inactive)
- GI50 [19]: 44.8 µM (inactive)
- GI50 [20]: 47.8 µM (inactive)
- GI50 [21]: 25.9 µM (inactive)
- GI50 [22]: > 100 µM (inactive)
- GI50 [23]: 58.2 µM (inactive)
- GI50 [24]: > 100 µM (inactive)
- GI50 [25]: > 100 µM (inactive)
- GI50 [26]: > 100 µM (inactive)
- GI50 [27]: 68.2 µM (inactive)
- GI50 [28]: 73.5 µM (inactive)
- GI50 [29]: 53.5 µM (inactive)
- GI50 [30]: 25.5 µM (inactive)
- GI50 [31]: 13.3 µM (inactive)
- GI50 [32]: 18 µM (inactive)
- GI50 [33]: 19.6 µM (inactive)
- GI50 [34]: 37.4 µM
- GI50 [35]: 18.2 µM (inactive)
- GI50 [36]: > 100 µM (inactive)
- GI50 [37]: 49.4 µM (inactive)
- GI50 [38]: > 100 µM (inactive)
- GI50 [39]: 39 µM (inactive)
- GI50 [40]: 74.1 µM (inactive)
- GI50 [41]: 32.8 µM (inactive)
- GI50 [42]: 23.6 µM (inactive)
- GI50 [43]: 72.1 µM (inactive)
- GI50 [44]: > 100 µM (inactive)
- GI50 [45]: > 100 µM (inactive)
- GI50 [46]: > 100 µM (inactive)
- GI50 [47]: 94.4 µM (inactive)
- GI50 [48]: > 100 µM (inactive)
- GI50 [49]: > 100 µM (inactive)
- GI50 [50]: 19.5 µM (inactive)
- GI50 [51]: 10.8 µM (inactive)
- GI50 [52]: 24.5 µM (inactive)
